Measured values published in patent publication US20250090541A1, “Methods for Treating Neurodegenerative Disorders” (Praetego Inc, priority 2022, published 2025).

Key:
Type in all cases: in vivo
[1] = Mortality and apparent toxicity, 20 weeks in 3×Tg mice; conditions: 1 and 5 mg/kg in drinking water
Description: (§1) Female and male 3×Tg mice (MMRRC #034830) were treated daily for 20 weeks with PTG-670 trihydrochloride at 1 and 5 mg/kg in drinking water starting at 19 weeks of age (˜5 months old) (just before cognitive deficits onset).
• 1—Control (B6129SF2/J Jax 101045)), N=7 male, N=7 female, • 2—3×Tg, N=7 male, N=7 female, • 3—3×Tg+PTG-670 1 mg/kg drinking water, N=7 male, N=7 female, • 4—3×Tg+PTG-670 5 mg/kg drinking water, N=7 male, N=7 female.
No mice died during the course of the study.

3×Tg mice [2] = assay: Tactile response (manual von Frey filaments), 3×Tg mice; conditions: 3×Tg mice did not develop tactile allodynia
Description: as §1
(§2) Tactile and thermal responses were assessed at 5 and 11 weeks. Motor nerve conduction velocity (NCV) was measured at 8, 12 and 20 weeks after treatment. Learning and memory were assessed using the Barnes maze test and the object recognition test at 6, 12, and 18 weeks of treatment. Corneal nerves were imaged by corneal confocal microscopy (CCM) at week 5, 11 and 17. Data represent male and female results combined, unless specified, mean±sem.

3×Tg mice [3] = assay: Thermal response to heat stimuli, 3×Tg mice; conditions: 3×Tg mice did not develop significant hypoalgesia
Description: as §1, §2

3×Tg mice [4] = assay: Motor nerve conduction velocity (NCV), 3×Tg mice; conditions: male 3×Tg mice, 20 weeks time point
Description: as §1, §2
Male 3×Tg mice develop significant (p<0.05) nerve conduction velocity slowing by 9 months of age (20 weeks time point) (data not shown). The slowing of NCV was prevented by treatment with PTG-670 at both 1 and 5 mg/kg in drinking water.

3×Tg mice [5] = assay: Barnes maze learning abilities, 3×Tg mice
Description: as §1, §2
Learning abilities assessed using the Barnes maze were impaired in 3×Tg mice in both male and female around 6-7 months, conform with the literature (Stover et al., 2015).

3×Tg mice [6] = assay: Barnes maze long-term memory, 3×Tg mice
Description: as §1, §2
Using the Barnes maze test, long-term memory was assessed between week 12 and 18 of treatment.

3×Tg mice [7] = assay: Object Recognition test, 3×Tg mice; conditions: for short term episodic memory deficits in Object recognition test: 5 mg/kg
Description: as §1, §2

4-hydroxynonal (4-HNE) = assay: Lipid peroxidation, 4-HNE Oxiselect Elisa in hippocampus homogenates, 3×Tg mice; conditions: 5 mg/kg
Description: as §1
Lipid peroxidation was assessed using the 4-Hydroxynonal (4-HNE) Oxiselect Elisa in hippocampus homogenates.

Drebrin = assay: Western blot of hippocampus, 3×Tg mice: Drebrin
Description: as §1
(§3) Mouse Hippocampus were processed for Western blotting analysis of Drebrin (actin binding protein in dendritic spines, role in neuronal growth, a decrease is a contributing factor in the pathogenesis of memory disturbance), PSD95 (a post-synaptic protein, role in the regulation of excitatory synapse maturity), and NeuN (neuronal nuclear antigen, biomarker for neurons, decrease=neuronal loss) (FIG. 12). The reduced drebrin levels in the hippocampus of 3×Tg mice was ameliorated by 20 weeks of treatment with PTG-670 at 5 mg/kg in drinking water only for female mice. Similarly, levels of PSD95 protein tend to decrease in 3×Tg mice and to be ameliorated by 5 mg/kg PTG670.

PSD95 = assay: Western blot of hippocampus, 3×Tg mice: PSD95
Description: as §1, §3

NeuN = assay: Western blot of hippocampus, 3×Tg mice: NeuN
Description: as §1, §3

## Cc1ncc(CN2CCCCCC2)c(-c2ncc[nH]2)c1O [PTG-670, 5-(azepan-1-ylmethyl)-4-(1H-imidazol-2-yl)-2-methylpyridin-3-ol]
[1]
  apparent toxicity: No apparent toxicity was observed
3×Tg mice [2]
  responses to von Frey filaments: did not affect mice responses to von Frey filaments
3×Tg mice [3]
  responses to heat stimuli: did not affect the 3×Tg mice responses to heat stimuli
3×Tg mice [4]; 1 mg/kg in drinking water
  slowing of NCV: prevented
3×Tg mice [4]; 5 mg/kg in drinking water
  slowing of NCV: prevented
3×Tg mice [5]; female 3×Tg mice, 1 mg/kg for 18 weeks
  learning abilities in Barnes maze: significantly improved learning abilities to level similar to control
3×Tg mice [5]; male 3×Tg mice
  learning deficits in Barnes maze: did not improve learning deficits
3×Tg mice [6]; female 3×Tg mice, 1 mg/kg, by week 18 of treatment
  long-term memory impairment in Barnes maze: significantly (p<0.05) prevented
3×Tg mice [6]; male 3×TG mice
  memory abilities in Barnes maze: No difference in memory abilities or effect
3×Tg mice [7]; after 6 weeks of treatment
  short term episodic memory deficits in Object recognition test: significantly (p<0.05) ameliorated
3×Tg mice [7]; after 18 weeks of treatment
  short term episodic memory deficits in Object recognition test: significantly (p<0.05) ameliorated
3×Tg mice [7]; FIG. 10 legend, 6 to 18 weeks of treatment
  short-term episodic memory (recognition index): alleviated
4-hydroxynonal (4-HNE)
  4-HNE levels in hippocampus: tend to reduce HNE levels
Drebrin; female mice only, 5 mg/kg in drinking water, 20 weeks
  reduced drebrin levels in hippocampus: ameliorated
Drebrin; male 3×Tg mice
  Drebrin in hippocampus: No differences were observed
PSD95; 5 mg/kg, tendency
  levels of PSD95 protein in hippocampus: ameliorated
PSD95; male 3×Tg mice
  PSD95 in hippocampus: No differences were observed
NeuN; female mice only, 5 mg/kg
  neuronal loss (NeuN) in hippocampus: significantly (p<0.05) elevated
NeuN; male 3×Tg mice
  NeuN in hippocampus: No differences were observed
